From US8389552B2, “(S)-6-(2-(4-(cyclobutylsulfonyl)-1H-imidazol-1-yl)-3-cyclopentylpropanamido)nicotinic acid useful as a glucokinase activator” (Pfizer Inc., priority 2009, dated 2013) come the findings set out here.

This experiment has as its target T1, Full-length glucokinase (beta cell isoform) (Homo sapiens, UniProt P35557).
T1 construct: Full-length glucokinase (beta cell isoform) was His-tagged at N-terminus; His tag (N); made in house; host or cells: E. coli BL21(DE3), pBCGK vector
T1 sequence (P35557 1-465): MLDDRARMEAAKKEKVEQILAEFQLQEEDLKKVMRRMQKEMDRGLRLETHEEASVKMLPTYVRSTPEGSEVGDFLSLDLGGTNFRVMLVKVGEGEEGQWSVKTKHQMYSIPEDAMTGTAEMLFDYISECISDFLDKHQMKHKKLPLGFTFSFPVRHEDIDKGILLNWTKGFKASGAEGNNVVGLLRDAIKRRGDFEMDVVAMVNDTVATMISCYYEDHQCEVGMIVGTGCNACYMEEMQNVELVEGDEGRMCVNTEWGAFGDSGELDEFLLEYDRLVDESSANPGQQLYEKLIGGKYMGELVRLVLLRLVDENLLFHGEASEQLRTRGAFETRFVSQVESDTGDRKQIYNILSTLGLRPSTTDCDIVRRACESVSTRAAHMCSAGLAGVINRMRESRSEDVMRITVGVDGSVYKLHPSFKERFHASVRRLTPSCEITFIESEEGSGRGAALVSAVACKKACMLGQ
As to the kind of experiment: Glucokinase activation assay (PK/LDH-coupled, NADH depletion at 340 nm). Format: biochemical. The conditions noted are these: for Emax: % max activation = (Va/Vo−1)×100 from fit, pH 7.1, read-out: Maximum Activation (%). The protocol:
Full-length glucokinase (beta cell isoform) was His-tagged at N-terminus and purified by a Ni column followed by size exclusion chromatography. A 320 mL column was packed in house using Superdex75 (Amersham Pharmacia, Carlsbad, Calif.) preparation grade resin. Glucose was obtained from Calbiochem (San Diego, Calif.) and other reagents were purchased from Sigma-Aldrich (St. Louis, Mo.).
All assays were performed in a Corning 384-well plate using Spectramax PLUS spectrophotometer (Molecular Devices, Sunnyvale, Calif.) at room temperature. The final assay volume was 40 ∥L. The buffer conditions used in this assay were as follows: 50 mM HEPES, 5 mM glucose, 2.5 mM ATP, 3.5 mM MgCl2, 0.7 mM NADH, 2 mM dithiothreitol, 1 unit/mL pyruvate kinase/lactate dehydrogenase (PK/LDH), 0.2 mM phosphoenolpyruvate, and 25 mM KCl. The buffer pH was 7.1. The test compound in dimethylsulfoxide solution was added to the buffer and mixed by a plate shaker for 7.5 minutes. The final concentration of dimethylsulfoxide introduced into the assay was 0.25%.
Glucokinase was added to the buffer mixture to initiate the reaction in the presence and absence of compound. The reaction was monitored by absorbance at 340 nm due to the depletion of NADH. The initial reaction velocity was measured by the slope of a linear time course of 0-300 seconds. The percentage of maximum activation was calculated by the following equation: % Maximum Activation=(Va/Vo−1)×100; wherein each of Va and Vo is defined as the initial reaction velocity in the presence and absence of the tested compound, respectively.
The glucokinase activities were measured as a function of compound concentrations.

Where [1] appears, read: 5 mM glucose, 2.5 mM ATP, pH 7.1, room temperature, single value or range where N>1, read-out: EC50.
Where [2] appears, read: 5 mM glucose, single value or range where N>1.

One may read the EC50 as the concentration giving half of the maximal effect.

Where two headings read alike, the source gives them in different places.

Regarding `CCS(=O)(=O)c1cnn([C@@H](CC2CCCC2)C(=O)Nc2ccn(C)n2)c1` [Example 20, (S)-3-cyclopentyl-2-(4-(ethylsulfonyl)-1H-pyrazol-1-yl)-N-(1-methyl-1H-pyrazol-3-yl)propanamide], the EC50 under setting [1] is 7.2 µM. Also, the Emax under setting [2] is 80%.

As for `Cc1cnc(NC(=O)[C@H](CC2CCCC2)n2cc(S(C)(=O)=O)cn2)cn1` [Example 14, (S)-3-cyclopentyl-N-(5-methylpyrazin-2-yl)-2-(4-(methylsulfonyl)-1H-pyrazol-1-yl)propanamide], under setting [1], the EC50 turned out to be 11 µM. The Emax under setting [2] was found to be 122%.

As for `Cc1cnc(NC(=O)[C@H](CC2CCCC2)n2cnc(S(C)(=O)=O)n2)cn1` [Example 27, (S)-3-cyclopentyl-N-(5-methylpyrazin-2-yl)-2-(3-(methylsulfonyl)-1H-1,2,4-triazol-1-yl)propanamide], the EC50 under setting [1] came out at 22 µM. Further, the Emax under setting [2] is 120%. As to `CC(C)S(=O)(=O)c1cnn([C@@H](CC2CCCC2)C(=O)Nc2ccc(C(F)(F)F)cn2)c1` [Example 3, (S)-3-cyclopentyl-2-(4-(isopropylsulfonyl)-1H-pyrazol-1-yl)-N-(5-(trifluoromethyl)pyridin-2-yl)propanamide], under setting [1], the concentration giving a half-maximal response (EC50) was 0.7 to 1.9 µM. For the same molecule, the Emax under setting [2] lay within 15 to 23%.

Regarding `Cn1ccc(NC(=O)[C@H](CC2CCCC2)n2ccc(C(F)(F)F)n2)n1` [Example 68, (S)-3-cyclopentyl-N-(1-methyl-1H-pyrazol-3-yl)-2-(3-(trifluoromethyl)-1H-pyrazol-1-yl)propanamide], the EC50 under setting [1] was greater than 100 µM. Take `Cc1ccc(NC(=O)[C@H](CC2CCCC2)n2cnc(S(C)(=O)=O)n2)nc1` [Example 25, (S)-3-cyclopentyl-N-(5-methylpyridin-2-yl)-2-(3-(methylsulfonyl)-1H-1,2,4-triazol-1-yl)propanamide]: the EC50 under setting [1] is 3.9 µM. Further, the Emax under setting [2] stood at 116%.

`Cn1ccc(NC(=O)[C@H](CC2CCCC2)n2cc(S(C)(=O)=O)cn2)n1` [Example 9, (S)-3-cyclopentyl-N-(1-methyl-1H-pyrazol-3-yl)-2-(4-(methylsulfonyl)-1H-pyrazol-1-yl)propanamide]: the EC50 under setting [1] is 55 µM. The Emax under setting [2] was determined as 174%. `CS(=O)(=O)c1cnn([C@@H](CC2CCCC2)C(=O)Nc2ccc(C(F)(F)F)cn2)c1` [Example 10, (S)-3-cyclopentyl-2-(4-(methylsulfonyl)-1H-pyrazol-1-yl)-N-(5-(trifluoromethyl)pyridin-2-yl)propanamide]: the EC50 under setting [1] came to 4.8 µM. In addition, the Emax under setting [2] is 56%. The corresponding values for `Cc1cn([C@@H](CC2CCCC2)C(=O)Nc2ccc(C(=O)O)cn2)nc1C(F)(F)F` [Example 95, (S)-6-(3-cyclopentyl-2-(4-methyl-3-(trifluoromethyl)-1H-pyrazol-1-yl)propanamido)nicotinic acid] are 8 µM and 128%. In the case of `CC(C)(O)C(=O)Nc1ccc(NC(=O)[C@H](CC2CCCC2)n2cnc(C(F)(F)F)c2)nc1` [Example 67, (S)-3-Cyclopentyl-N-[5-(2-hydroxy-2-methyl-propionylamino)-pyridin-2-yl]-2-(4-trifluoromethyl-imidazol-1-yl)-propionamide], the EC50 under setting [1] stood at 2.8 µM. Moreover, the Emax under setting [2] is 104%. As for `CCn1ncc(NC(=O)[C@H](CC2CCCC2)n2cnc(C(F)(F)F)c2)n1` [Example 49, (S)-3-cyclopentyl-N-(2-ethyl-2H-[1,2,3]triazol-4-yl)-2-(4-trifluoromethyl-1H-imidazol-1-yl)propanamide], the 50% effective concentration (EC50) under setting [1] stood at 2.2 µM. For the same molecule, the Emax under setting [2] was 168%.

`CS(=O)(=O)c1cn([C@@H](CC2CCCC2)C(=O)Nc2ccc(C(=O)O)cn2)cn1` [Example 38, (S)-6-(3-cyclopentyl-2-(4-(methylsulfonyl)-1H-imidazol-1-yl)propanamido)nicotinic acid]: under setting [1], the EC50 came to 2.3 µM. Moreover, the Emax under setting [2] was determined as 160%. Consider `CC(C)S(=O)(=O)c1cnn([C@@H](CC2CCCC2)C(=O)Nc2ccn(C)n2)c1` [Example 7, (S)-3-cyclopentyl-2-(4-(isopropylsulfonyl)-1H-pyrazol-1-yl)-N-(1-methyl-1H-pyrazol-3-yl)propanamide], for which the concentration for a half-maximal effect (EC50) under setting [1] was 3.5 to 6 µM. Moreover, under setting [2], the Emax was in the range of 39 to 40%.

With `Cc1cnc(NC(=O)[C@H](CC2CCCC2)n2cnc(S(C)(=O)=O)c2)cn1` [Example 34, (S)-3-cyclopentyl-N-(5-methylpyrazin-2-yl)-2-(4-(methylsulfonyl)-1H-imidazol-1-yl)propanamide], under setting [1], the EC50 was 62 µM. For the same molecule, under setting [2], the Emax worked out at 236%.

As to `CS(=O)(=O)c1ccc(NC(=O)[C@H](CC2CCCC2)n2cnc(C(F)(F)F)c2)nc1` [Example 51, (S)-3-cyclopentyl-N-[5-(methylsulfonyl)pyridin-2-yl]-2-[4-(trifluoromethyl)-1H-imidazol-1-yl]propanamide], the EC50 under setting [1] was in the range of 6.7 to 8.8 µM. Besides, the Emax under setting [2] lay within 90 to 113%. The corresponding values for `CCS(=O)(=O)c1cnn([C@@H](CC2CCCC2)C(=O)Nc2cnc(C)cn2)c1` [Example 22, (S)-3-cyclopentyl-2-(4-(ethylsulfonyl)-1H-pyrazol-1-yl)-N-(5-methylpyrazin-2-yl)propanamide] are 25 µM and 144%.

As to `CCOP(=O)(OCC)c1ccc(NC(=O)[C@H](CC2CCCC2)n2cnc(C(F)(F)F)c2)nc1` [Example 59, (S)-diethyl 6-(3-cyclopentyl-2-(4-(trifluoromethyl)-1H-imidazol-1-yl)propanamido)pyridin-3-ylphosphonate], the EC50 came to 14 µM. Under setting [2], the Emax turned out to be 81%. Take `NC(=O)c1ccc(NC(=O)[C@H](CC2CCCC2)n2cnc(C(F)(F)F)c2)nc1` [Example 52, 6-[(S)-3-cyclopentyl-2-(4-trifluoromethyl-1H-imidazol-1-yl)-propionylamino]-nicotinamide]: under setting [1], the EC50 turned out to be 0.4 µM. Further, under setting [2], the Emax amounted to 110%. The matching figures for `CCS(=O)(=O)c1cn([C@@H](CC2CCCC2)C(=O)Nc2ccn(C)n2)cn1` [Example 31, (S)-3-cyclopentyl-2-(4-(ethylsulfonyl)-1H-imidazol-1-yl)-N-(1-methyl-1H-pyrazol-3-yl)propanamide]: 11 µM and 125%. The corresponding values for `Cc1cnc(NC(=O)[C@H](CC2CCCC2)n2cnc(S(=O)(=O)C(C)C)c2)cn1` [Example 30, (S)-3-cyclopentyl-2-(4-(isopropylsulfonyl)-1H-imidazol-1-yl)-N-(5-methylpyrazin-2-yl)propanamide] are 10 µM and 100%. As to `Cc1cnc(NC(=O)[C@H](CC2CCCC2)n2cnc(C(F)(F)F)c2)cn1` [Example 45, (S)-3-cyclopentyl-N-(5-methylpyrazin-2-yl)-2-(4-(trifluoromethyl)-1H-imidazol-1-yl)propanamide], the EC50 under setting [1] was found to be 2 µM. Further, under setting [2], the Emax stood at 161%. For the molecule `CS(=O)(=O)c1cnn([C@@H](CC2CCCC2)C(=O)Nc2ccn(Cc3ccccc3)n2)c1` [Example 12, (S)—N-(1-benzyl-1H-pyrazol-3-yl)-3-cyclopentyl-2-(4-(methylsulfonyl)-1H-pyrazol-1-yl)propanamide], under setting [1], the EC50 was greater than 100 µM. Consider `Cc1cnc(NC(=O)[C@H](CC2CCOCC2)n2cnc(C(F)(F)F)c2)cn1` [Example 74, (S)—N-(5-methylpyrazin-2-yl)-3-(tetrahydro-2H-pyran-4-yl)-2-(4-(trifluoromethyl)-1H-imidazol-1-yl)propanamide], for which the EC50 under setting [1] was 8.7 µM. Moreover, the Emax under setting [2] was found to be 115%. With `CCS(=O)(=O)c1cnn([C@@H](CC2CCCC2)C(=O)Nc2ccc(C)cn2)c1` [Example 21, (S)-3-cyclopentyl-2-(4-(ethylsulfonyl)-1H-pyrazol-1-yl)-N-(5-methylpyridin-2-yl)propanamide], the EC50 under setting [1] amounted to 2.9 µM. Moreover, the Emax under setting [2] stood at 65%.
